Results: PubChem BioAssay (NCI)
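96-well plates; 48 h exposure; 5 concentrations. Endpoints by linear interpolation between flanking doses. Not reached: highest tested concentration assigned. TGI marks complete inhibition of growth.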

How the values were obtained:
Assay in all cases: inhibition of tumour cell growth, NCI panel, 48 h
XF 498 CNS = test system: XF 498 CNS
DLD-1 colon = test system: DLD-1 colon
K-562 leukemia = test system: K-562 leukemia
KM20L2 colon = test system: KM20L2 colon
LXFL 529 NSCLC = test system: LXFL 529 NSCLC
SNB-78 CNS = test system: SNB-78 CNS
DMS 114 small cell lung = test system: DMS 114 small cell lung
M19-MEL melanoma = test system: M19-MEL melanoma
SR leukemia = test system: SR leukemia
RXF-631 renal = test system: RXF-631 renal
DMS 273 small cell lung = test system: DMS 273 small cell lung
HOP-18 NSCLC = test system: HOP-18 NSCLC

CC(C)OP(=O)(OC(C)C)/C(=N/Nc1ccc([N+](=O)[O-])cc1)NNC(=O)c1ccccc1
TGI (XF 498 CNS): 48.1 µM
TGI (DLD-1 colon): > 100 µM
TGI (K-562 leukemia): > 100 µM
TGI (KM20L2 colon): > 100 µM
TGI (LXFL 529 NSCLC): 68.5 µM
TGI (SNB-78 CNS): 80.4 µM
TGI (DMS 114 small cell lung): 43.1 µM
TGI (M19-MEL melanoma): 41.2 µM
TGI (SR leukemia): 50.9 µM

Cc1cc(S(=O)(=O)Nc2nnc3c(Cl)cc(C(F)(F)F)cn23)c(S)cc1Cl
TGI (K-562 leukemia): > 100 µM
TGI (SR leukemia): > 100 µM

Cc1cc(N(CCC#N)CCC#N)ccc1/C=C(\N=[N+]=[N-])C(=O)NC(=O)COc1ccccc1
TGI (XF 498 CNS): > 100 µM
TGI (RXF-631 renal): > 100 µM
TGI (DLD-1 colon): > 100 µM
TGI (K-562 leukemia): > 100 µM
TGI (DMS 273 small cell lung): > 100 µM
TGI (KM20L2 colon): > 100 µM
TGI (HOP-18 NSCLC): > 100 µM
TGI (LXFL 529 NSCLC): > 100 µM
TGI (SNB-78 CNS): > 100 µM
TGI (DMS 114 small cell lung): > 100 µM
TGI (SR leukemia): > 100 µM

O=C(O)c1ccccc1/C=N\N(CCO)C1=NCCN1
TGI (K-562 leukemia): > 100 µM
TGI (SR leukemia): > 100 µM

CCOC(=O)CN1C(=O)c2c(NC(=O)C(=O)O)cccc2S1(=O)=O
TGI (K-562 leukemia): > 100 µM
TGI (SR leukemia): > 100 µM

CN(CCO)c1nc(=O)c2c(n1C1OC(CO)C(O)C(O)C1O)CCCC2 (stereo not drawn)
TGI (XF 498 CNS): > 100 µM
TGI (DLD-1 colon): > 100 µM
TGI (K-562 leukemia): > 100 µM
TGI (DMS 273 small cell lung): > 100 µM
TGI (KM20L2 colon): > 100 µM
TGI (HOP-18 NSCLC): > 100 µM
TGI (LXFL 529 NSCLC): > 100 µM
TGI (SNB-78 CNS): > 100 µM
TGI (DMS 114 small cell lung): > 100 µM
TGI (M19-MEL melanoma): > 100 µM
TGI (SR leukemia): > 100 µM

O=C1/C(=C/c2cccc([N+](=O)[O-])c2)Cc2ccccc21
TGI (K-562 leukemia): > 100 µM
TGI (SR leukemia): > 100 µM

COC(=O)CCc1cc(OC)c2oc(-c3ccc(OC)c(OC)c3)c(CO)c2c1
TGI (K-562 leukemia): > 100 µM
TGI (SR leukemia): > 100 µM

CCOC(=O)C(CCSC)(CCSC)C(=O)OCC
TGI (K-562 leukemia): > 100 µM

CCOC(=O)Cc1ccc(Nc2nc3cc(F)c(F)cc3nc2C(=O)OCC)cc1
TGI (K-562 leukemia): > 100 µM
TGI (SR leukemia): > 100 µM

CCCC1(N2C(=O)c3ccc4c5c(ccc(c35)C2=O)N(C2(CCC)CCCCC2)C4=O)CCCCC1
TGI (K-562 leukemia): > 100 µM

CCOC(=O)c1c(Br)c(-c2ccc([N+](=O)[O-])cc2)c(Br)n1C
TGI (K-562 leukemia): > 10 µM
TGI (SR leukemia): > 10 µM

CCOC(=O)C1=C(C)C2C3C(=O)OC(=O)C3C1(C)C1C(=O)OC(=O)C21 (stereo not drawn)
TGI (RXF-631 renal): > 100 µM
TGI (DLD-1 colon): > 100 µM
TGI (K-562 leukemia): > 100 µM
TGI (DMS 273 small cell lung): > 100 µM
TGI (KM20L2 colon): > 100 µM
TGI (LXFL 529 NSCLC): > 100 µM
TGI (SNB-78 CNS): > 100 µM
TGI (DMS 114 small cell lung): > 100 µM
TGI (M19-MEL melanoma): > 100 µM

Oc1c(Cl)c(Cl)c(O)c(-c2cnc(-c3ncc(-c4c(O)c(Cl)c(Cl)c(O)c4Cl)s3)s2)c1Cl
TGI (K-562 leukemia): > 100 µM
TGI (SR leukemia): > 100 µM

CCOC(=O)C(C(=O)OCC)S(C)(=O)=O
TGI (XF 498 CNS): > 100 µM
TGI (RXF-631 renal): > 100 µM
TGI (DLD-1 colon): > 100 µM
TGI (K-562 leukemia): > 100 µM
TGI (DMS 273 small cell lung): > 100 µM
TGI (KM20L2 colon): > 100 µM
TGI (HOP-18 NSCLC): > 100 µM
TGI (DMS 114 small cell lung): > 100 µM
TGI (M19-MEL melanoma): > 100 µM
TGI (SR leukemia): > 100 µM

N#CCCN(c1ccc(C=Nc2ccc(C(=O)O)cc2)cc1)S(=O)(=O)c1ccccc1
TGI (XF 498 CNS): > 100 µM
TGI (DLD-1 colon): > 100 µM
TGI (K-562 leukemia): > 100 µM
TGI (DMS 273 small cell lung): > 100 µM
TGI (KM20L2 colon): > 100 µM
TGI (HOP-18 NSCLC): > 100 µM
TGI (LXFL 529 NSCLC): > 100 µM
TGI (SNB-78 CNS): > 100 µM
TGI (DMS 114 small cell lung): > 100 µM
TGI (M19-MEL melanoma): > 100 µM
TGI (SR leukemia): > 100 µM

C[N+]1(C)C/C(=C\C=C\c2ccccc2)C(=O)/C(=C/C=C/c2ccccc2)C1
TGI (XF 498 CNS): 57.4 µM
TGI (DLD-1 colon): 45.5 µM
TGI (K-562 leukemia): 36 µM
TGI (KM20L2 colon): 33.1 µM
TGI (HOP-18 NSCLC): > 61.1 µM
TGI (LXFL 529 NSCLC): 11.6 µM
TGI (SNB-78 CNS): > 100 µM
TGI (DMS 114 small cell lung): 10.9 µM
TGI (M19-MEL melanoma): 31.7 µM
TGI (SR leukemia): 23.9 µM

Cc1c2c(n3c(nc4ccccc43)c1C#N)NCC2
TGI (K-562 leukemia): > 10 µM
TGI (SR leukemia): > 10 µM

COc1cccc2c1C(=O)c1c(O)c3c(c(O)c1C2=O)CC(O)(C(C)=O)CC3OC1OC(COC(C)=O)C(OC(C)=O)C(OC(C)=O)C1OC(C)=O (stereo not drawn)
TGI (K-562 leukemia): > 100 µM
TGI (SR leukemia): 25.8 µM

O=C(O)c1ccc(Nc2nc3ccc(C(F)(F)F)cc3nc2-c2ccccc2)cc1
TGI (K-562 leukemia): > 100 µM
TGI (SR leukemia): > 100 µM

CC(c1ccccc1)n1c2ccccc2c2c(N)ncnc21 (stereo not drawn)
TGI (K-562 leukemia): 71.9 µM
TGI (SR leukemia): 56.7 µM

CC1=NC(=O)CNN1C1=NNC2(C(=O)N1)c1ccccc1-c1ccccc12
TGI (K-562 leukemia): > 100 µM
TGI (SR leukemia): > 100 µM

CC(=O)Oc1ccc(C)c2c1[C@H]1CC[C@]3(C)[C@@H](OC(C)=O)CC[C@H]3[C@@H]1CC2
TGI (K-562 leukemia): 68.3 µM
TGI (SR leukemia): > 100 µM

CC1=C(C(=O)NNC(=O)c2ccccc2O)CC(C(=O)NNC(=O)c2ccccc2O)=C(C)N1
TGI (K-562 leukemia): > 100 µM
TGI (SR leukemia): > 29.2 µM

COc1c(N2CCCCC2)c2c(=O)c3ccccc3oc2c2c3ccccc3n(C)c12
TGI (K-562 leukemia): > 100 µM

C/C1=C\CC[C@@]2(C)O[C@@H]2C[C@@H]2[C@H](C/C(C)=C/CC1)OC(=O)[C@]21CO1
TGI (K-562 leukemia): > 100 µM
TGI (SR leukemia): > 100 µM

O=C(Nc1ccccc1)c1cc2cc(CCl)ccc2oc1=O
TGI (K-562 leukemia): > 100 µM
TGI (SR leukemia): > 100 µM

CCOC(=O)C12CCC(c3c(C)cccc3C)(O1)C(C(=O)OC)=C2C(=O)OC (stereo not drawn)
TGI (K-562 leukemia): > 10 µM
TGI (SR leukemia): 6.06 µM

Cc1ccc(C(CCO)CCO)nc1
TGI (SR leukemia): > 100 µM

CC(NNC(=S)N1CCCC1)c1cccnn1 (stereo not drawn)
TGI (K-562 leukemia): > 100 µM
TGI (SR leukemia): > 100 µM

CC(=O)OC1CC2C(=O)CC1(C)C2(C)C (stereo not drawn)
TGI (K-562 leukemia): > 100 µM
TGI (SR leukemia): > 100 µM

O=C(NCCCN1CCN(CCCNC(=O)c2cc(-c3ccccc3)nc3ccccc23)CC1)c1cc(-c2ccccc2)nc2ccccc12
TGI (K-562 leukemia): 34.2 µM

CCN(CC)CCC(=O)Nc1ccc2sc3ccccc3c(=O)c2n1
TGI (K-562 leukemia): 41.4 µM
TGI (SR leukemia): > 100 µM

Cc1nnc(N)nc1C/C=C/C(C)Sc1ccc(Cl)cc1 (stereo not drawn)
TGI (K-562 leukemia): > 100 µM

C[n+]1ccc2/c(=C\C#N)c3ccccc3n21
TGI (K-562 leukemia): > 100 µM
TGI (SR leukemia): 56.5 µM

CCCCCCCC(=O)OC(COC(=O)Cc1ccccc1)COC(=O)C(C)(C)C (stereo not drawn)
TGI (RXF-631 renal): > 100 µM
TGI (DLD-1 colon): > 100 µM
TGI (K-562 leukemia): > 100 µM
TGI (DMS 273 small cell lung): > 100 µM
TGI (KM20L2 colon): > 100 µM
TGI (HOP-18 NSCLC): > 100 µM
TGI (LXFL 529 NSCLC): > 100 µM
TGI (DMS 114 small cell lung): > 100 µM
TGI (M19-MEL melanoma): > 100 µM
TGI (SR leukemia): > 100 µM

COc1cccc(C2c3cc4c(cc3OC(NNC(N)=O)C2C)OCO4)c1OC (stereo not drawn)
TGI (K-562 leukemia): 88 µM
TGI (SR leukemia): 18.8 µM
